B1: recombinant IL-4: recombinant IL-4 (protein, UniProt P07750 21-140, looked up)
Interleukin-4: HIHGCDKNHLREIIGILNEVTGEGTPCTEMDVPNVLTATKNTTESELVCRASKVLRIFYLKHGKTPCLKKNSSVLMELQRLFRAFRCLDSSISCTMNESKSTSLKDFLESLKSIMQMDYS

Columns and labels:
[1] = tested on: chimeric human/mouse MHC class II molecules; assay type: binding
[2] = tested on: chimeric MHC class II molecules on splenic B cells; assay type: cell-based, mouse; conditions: overnight incubation of splenic B cells with recombinant IL-4; data not shown

| Molecule | binding to chimeric MHC class II molecules [1] | cell surface level of chimeric MHC class II molecules [2] |
| --- | --- | --- |
| OVA (323-339): a peptide that does not bind to DR4Dw4 (ISQAVHAAHAEINEAGR; UniProt P01012 324-340, looked up, fragment) | Binding was not observed | – |
| myelin basic protein (90-102): DR-restricted synthetic peptide (HLIRLFSRDAPGR; UniProt P02686 90-102, looked up, fragment) | Specific binding was also observed | – |
| B1 | – | increased by three- to fourfold |

— publication PMC2191575 (The Journal of Experimental Medicine, 1994)
